# Source: patent US12133843B2, “IL-8 inhibitors for use in the treatment and/or prevention of bacterial secondary infections” (priority 2017, dated 2024)
# Legend:
# [1] = test system: H1N1 influenza virus plus cigarette smoke; test: Lung inflammation exacerbation model combining H1N1 influenza infection and cigarette smoke exposure (Cs-H1N1); type: in vivo, female C57BL/6 mice; conditions: survival assay, once a day for 7 days from day of infection
# From the text: Viral infections are among the principal causes of COPD exacerbations (Mackay, A. J. & Hurst, J. R. Immunol Allergy Clin North Am 33, 95-115; 2013). For that reason, the inventors combined influenza infection and cigarette smoke exposure (Cs) in mice in order to model COPD exacerbation. The inventors essentially exposed female C57BL/6 mice to Cs for 12 days and infect them with 1000 pfu of H1N1 influenza virus at day 7 after starting daily Cs exposure (Cs-H1N1).
# [2] = test system: Influenza A/WSN/33 H1N1 (IAV); test: Single IAV infection in mice, treatment with CXCR1/CXCR2 antagonist; type: in vivo, C57BL/6J mice; conditions: 10^4 PFU IAV
# [3] = test system: S. pneumoniae secondary infection after IAV; type: in vivo, C57BL/6J mice
# neutrophil influx = conditions: this dose and schedule (10 mg/kg oral gavage); cited from earlier work
# [4] = in vivo; cited from earlier work
# [5] = test system: Streptococcus pneumoniae (ATCC 6303 serotype 3); test: Single pneumococcal infection (pneumonia) in mice; type: in vivo, C57BL/6J mice; conditions: S. pneumoniae i.n.
# [6] = 10 mg/kg twice a day for 5 days, day 5, BAL
# [7] = 10 mg/kg twice a day for 5 days, day 5, BAL fluid ELISA
# [8] = 10 mg/kg at 6, 12, 24, 36 h, 48 h after infection, BALF
structure (smiles),measurement,setting,value
C[C@@H](C(=O)NS(C)(=O)=O)c1ccc(OS(=O)(=O)C(F)(F)F)cc1 [DF2156A],Mortality rate,"[1]; Cs-H1N1 mice, LD50 of influenza virus",slightly reduced
same,"Mice mortality, delay (survival curve vs Cs-H1N1 group)",[1],significantly delayed
"C[N+]1(C)[C@@H]2C[C@@H](OC(=O)C(O)(c3cccs3)c3cccs3)C[C@H]1[C@@H]1O[C@@H]12 [Tiotropium, reference compound]","Mice mortality, delay (survival curve vs Cs-H1N1 group)",[1],no significant differences
"C[C@@H](C(N)=O)c1ccc(OS(=O)(=O)C(F)(F)F)cc1 [DF2162, R(−)-2-[(4′-trifluoromethanesulfonyloxy)phenyl]propionamide]",Weight loss (morbidity),"[2]; 10 mg/kg oral gavage twice a day, day 0 to 5, vs vehicle",reduction of weight loss
same,Histological analysis of lungs: bronchiolar and vascular inflammation,"[2]; 10 mg/kg twice a day for 5 days, H&E slides",reduced bronchiolar and vascular inflammation
same,Levels of MPO in the lungs,"[2]; 10 mg/kg twice a day for 5 days, day 5",did not reduce
same,Neutrophils in the airways,[2]; [6],decreased
same,Number of leukocytes recruited into the airways,[2]; [6],decreased
same,Levels of CXCL1 in the airways,[2]; [7],decreased
same,Levels of IL-6 in the airways,[2]; [7],did not reduce
same,Levels of TNF-α in the airways,[2]; [7],decreased
same,Viral loads in the lungs,"[2]; 10 mg/kg twice a day for 5 days, day 5, plaque assay, vs vehicle",reduced
same,Lung injury (histopathological score),"[2]; 10 mg/kg twice a day for 5 days, day 5, score max 18 points",reduced the lung injury
same,Levels of IL-10 in BAL fluid,"[3]; mouse, in vivo",decreased
same,Mortality after secondary infection,"[3]; mouse, in vivo, 10 mg/kg",delayed mortality
same,Weight loss,"[3]; mouse, in vivo, 10 mg/kg",reduced the weight loss
same,Histopathological lung damage (overall score of lung injury),"[3]; treated days 3-6 of IAV, […]",decreased such histopathological lung damage
same,Levels of CXCL-1 in BAL fluid,"[3]; treated days 3-6 of IAV, […]",prevented the increase
same,Levels of IL-6 in BAL fluid,"[3]; treated days 3-6 of IAV, […]",prevented the increase
same,Levels of IL-12 in BAL fluid,"[3]; treated days 3-6 of IAV, […]",prevented the increase
same,Levels of TNF-α in BAL fluid,"[3]; treated days 3-6 of IAV, […]",prevented the increase
same,Number of bacteria in the blood,"[3]; treated days 3-6 of IAV, […]",reduction in number of bacteria
same,Recruitment of neutrophils into the lungs (MPO assay),"[3]; treated days 3-6 of IAV, […]",decreased recruitment of neutrophils
same,Recruitment of neutrophils into the airways,"[3]; treated days 3-6 of IAV, […], BAL",decreased recruitment of neutrophils
same,Levels of protein in BALF (protein leakage),"[3]; treated days 3-6 of IAV, […], Bradford assay",decreased the levels of protein in BALF
same,Neutrophil influx in other models,neutrophil influx,significant inhibition of neutrophil influx
same,Half-life,[4],long half-life
same,Lung injury (overall pathological score),"[5]; 10 mg/kg at 6, 12, 24, 36 h, 48 h, score max 18 points",reduced the lung injury
same,Neutrophils in the lungs,"[5]; 10 mg/kg at 6, 12, 24, 36 h, 48 h after infection",reduction in neutrophils
same,Neutrophils recruited into the airways,[5]; [8],decreased
same,Number of leukocytes recruited into the airways,[5]; [8],decreased number of leukocytes
same,Lethality,"[5]; 10 mg/kg twice a day for 2 days, followed 10 days",protected mice from lethality
